Source: patent US20090311237A1, “Combination therapy using a soluble hyaluronidase and a bisphosphonate” (priority 2008, published 2009)
Like-named read-outs stand apart in the source and are kept apart here.

Assay: Pharmacokinetics of ZA in pig serum after IV or SC infusion with or without rHuPH20 (LC-MS-MS, non-compartmental analysis)
Format: in vivo
Description: A pharmacokinetic study of zoledronic acid (ZA) co-administered with rHuPH20 in female Yorkshire swines was conducted. The primary objective of the study was to determine the bioavailability of zoledronic acid dosed via subcutaneous (SC) co-administration with human recombinant hyaluronidase PH20 (rHuPH20) and to compare the overall exposure to an equivalent IV dose.
Animals in Study Group 1 were dosed with 0.15 mg/kg ZA given via a 20-minute IV infusion. Animals in Study Groups 2 and 3 were dosed subcutaneously (SC) with 0.15 mg/kg ZA without and with rHuPH20, respectively, in different SC delivery volumes.
Following ZA dose administration, serial blood samples were collected via vascular access ports (VAPs) for serum preparation and determination of ZA concentrations. Blood collection times were at 1, 3, 5, 10, 15, 20, 30, 45, and 60 minutes, and at 1.5, 2, 3, 4, 6, 8, 10, 24, 48, and 72 hours post dose. Urine samples were also collected to compare excretion characteristics between IV and SC routes of administration. Collection times for urine were at 15 minutes before dosing (−15 min.), continuously from dose initiation to 2 hours post dose, and at 4, 6, 8, and 24 hours post dose thereafter.
Serum concentration of ZA was determined using a qualified LC-MS-MS assay after derivatization with diazomethane (Zhu, L S et al. (2006) Rapid Commun. Mass Spectrom. 20: 3421-3426; “Qualification Data of An LC-MS/MS Method for the Determination of Zoledronate in Porcine Serum”, MDS Pharma Services Study No. AA43671-01, Report Date 14 Sep. 2007). The assay range was from 2.0 to 400 ng/mL with a lower limit of quantitation (LLOQ) at 2.0 ng/mL. Urine concentration of ZA was determined by a similar well qualified LC-MS-MS method (“Qualification Data of An LC-MS/MS Method for the Determination of Zoledronate in Porcine Urine”, MDS Pharma Services Study No. AA43671-02, Report Date 14 Sep. 2007) with an assay LLOQ at 10 ng/mL.
Pharmacokinetic (PK) analyses of ZA serum concentration versus time data were conducted using WinNonlin v5.1 (Pharsight, Mountain View, Calif.). Non-compartmental analysis was used for derivation of primary and secondary pharmacokinetic (PK) parameters. AUC, Cmax, and Tmax were compared between dose routes, between co-administration with rHuPH20, and with dose of rHuPH20.

[1] = female, Yorkshire, pig, serum, subcutaneous, […], pig 66, Study Group 3, SC, ZA […], rHuPH20 10000 U/mL, 100 mL over 16 min, read-out: Zoledronic Acid Serum Concentration
[2] = female, Yorkshire, pig, serum, subcutaneous, […], pig 68, Study Group 3, SC, ZA […], rHuPH20 10000 U/mL, 10 mL over 1.6 min, read-out: Zoledronic Acid Serum Concentration
[3] = female, Yorkshire, pig, serum, subcutaneous, pig 56, Study Group 3, SC, ZA […], rHuPH20 10000 U/mL, 25 mL over 4 min, read-out: Zoledronic Acid Serum Concentration
[4] = female, Yorkshire, pig, serum, subcutaneous, pig 58, Study Group 3, SC, ZA […], rHuPH20 10000 U/mL, 50 mL over 8 min, read-out: Zoledronic Acid Serum Concentration
[5] = female, Yorkshire, pig, serum, subcutaneous, pig 68, Study Group 3, SC, ZA […], rHuPH20 10000 U/mL, 10 mL over 1.6 min, read-out: Zoledronic Acid Serum Concentration

SMILES: O=P(O)(O)C(O)(Cn1ccnc1)P(=O)(O)O [ZA, 1-hydroxy-2-(1H-imidazol-1-yl)ethylidene-1,1-bisphosphonic acid]
- concentration at 4 h (female, Yorkshire, pig, serum, subcutaneous, […], pig 64, Study Group 3, SC, ZA […], rHuPH20 10000 U/mL, 100 mL over 16 min, read-out: Zoledronic Acid Serum Concentration): 19 ng/mL
- concentration at 6 h (female, Yorkshire, pig, serum, subcutaneous, […], pig 64, Study Group 3, SC, ZA […], rHuPH20 10000 U/mL, 100 mL over 16 min, time 6 h, read-out: Zoledronic Acid Serum Concentration): 5.75 ng/mL
- concentration at 0.05 h [1]: 12 ng/mL
- concentration at 0.333 h [1]: 103 ng/mL
- concentration at 0.5 h [1]: 78.2 ng/mL
- concentration at 1 h [1]: 53.3 ng/mL
- concentration at 2 h [1]: 23.2 ng/mL
- concentration at 3 h [1]: 11.4 ng/mL
- concentration at 4 h [1]: 6.39 ng/mL
- concentration at 0.05 h [2]: 342 ng/mL
- concentration at 0.333 h [2]: 201 ng/mL
- concentration at 0.5 h [2]: 175 ng/mL
- concentration at 0.05 h [3]: 101 ng/mL
- concentration at 0.333 h [3]: 235 ng/mL
- concentration at 0.5 h [3]: 194 ng/mL
- concentration at 1 h [3]: 128 ng/mL
- concentration at 2 h [3]: 59.7 ng/mL
- concentration at 3 h [3]: 31.2 ng/mL
- concentration at 4 h [3]: 17.6 ng/mL
- concentration at 5 h (female, Yorkshire, pig, serum, subcutaneous, pig 56, Study Group 3, SC, ZA […], rHuPH20 10000 U/mL, 25 mL over 4 min, time 5 h, read-out: Zoledronic Acid Serum Concentration): 19.6 ng/mL
- concentration at 6 h (female, Yorkshire, pig, serum, subcutaneous, pig 56, Study Group 3, SC, ZA […], rHuPH20 10000 U/mL, 25 mL over 4 min, time 6 h, read-out: Zoledronic Acid Serum Concentration): 7.21 ng/mL
- concentration at 8 h (female, Yorkshire, pig, serum, subcutaneous, pig 56, Study Group 3, SC, ZA […], rHuPH20 10000 U/mL, 25 mL over 4 min, time 8 h, read-out: Zoledronic Acid Serum Concentration): 2.28 ng/mL
- concentration at 0.05 h [4]: 73.8 ng/mL
- concentration at 0.333 h [4]: 270 ng/mL
- concentration at 0.5 h [4]: 177 ng/mL
- concentration at 1 h [4]: 107 ng/mL
- concentration at 1 h [5]: 90.6 ng/mL
- concentration at 2 h [5]: 43.2 ng/mL
- concentration at 3 h [5]: 17 ng/mL
- concentration at 4 h [5]: 7.09 ng/mL
- concentration at 6 h (female, Yorkshire, pig, serum, subcutaneous, pig 68, Study Group 3, SC, ZA […], rHuPH20 10000 U/mL, 10 mL over 1.6 min, time 6 h, read-out: Zoledronic Acid Serum Concentration): 2.68 ng/mL
- concentration at […] (female, Yorkshire, pig, serum, subcutaneous, pig 68, Study Group 3, SC, ZA […], rHuPH20 10000 U/mL, 10 mL over 1.6 min, time […], read-out: Zoledronic Acid Serum Concentration): 50.5 ng/mL
- Zoledronic Acid Serum Concentration (pig 56, Study Group 3, SC, ZA […], rHuPH20 10000 U/mL, 25 mL over 4 min, time 10 h): BLQ^a (below assay limit of quantification (2.0 ng/mL))
- Zoledronic Acid Serum Concentration (pig 56, Study Group 3, SC, ZA […], rHuPH20 10000 U/mL, 25 mL over 4 min, time 24 h): BLQ (below assay limit of quantification (2.0 ng/mL))
- Zoledronic Acid Serum Concentration (pig 56, Study Group 3, SC, ZA […], rHuPH20 10000 U/mL, 25 mL over 4 min, time 48 h): BLQ (below assay limit of quantification (2.0 ng/mL))
- Zoledronic Acid Serum Concentration (pig 56, Study Group 3, SC, ZA […], rHuPH20 10000 U/mL, 25 mL over 4 min, time 72 h): BLQ (below assay limit of quantification (2.0 ng/mL))
- Zoledronic Acid Serum Concentration (pig 56, Study Group 3, SC, ZA […], rHuPH20 10000 U/mL, 25 mL over 4 min, time […]): BLQ (below assay limit of quantification (2.0 ng/mL))
- Zoledronic Acid Serum Concentration (pig 58, Study Group 3, SC, ZA […], rHuPH20 10000 U/mL, 50 mL over 8 min, time 8 h): BLQ (below assay limit of quantification (2.0 ng/mL))
- Zoledronic Acid Serum Concentration (pig 58, Study Group 3, SC, ZA […], rHuPH20 10000 U/mL, 50 mL over 8 min, time 10 h): BLQ (below assay limit of quantification (2.0 ng/mL))
- Zoledronic Acid Serum Concentration (pig 58, Study Group 3, SC, ZA […], rHuPH20 10000 U/mL, 50 mL over 8 min, time 24 h): BLQ (below assay limit of quantification (2.0 ng/mL))
- Zoledronic Acid Serum Concentration (pig 58, Study Group 3, SC, ZA […], rHuPH20 10000 U/mL, 50 mL over 8 min, time 48 h): BLQ (below assay limit of quantification (2.0 ng/mL))
- Zoledronic Acid Serum Concentration (pig 58, Study Group 3, SC, ZA […], rHuPH20 10000 U/mL, 50 mL over 8 min, time 72 h): BLQ (below assay limit of quantification (2.0 ng/mL))
- Zoledronic Acid Serum Concentration (pig 58, Study Group 3, SC, ZA […], rHuPH20 10000 U/mL, 50 mL over 8 min, time […]): BLQ (below assay limit of quantification (2.0 ng/mL))
- Zoledronic Acid Serum Concentration (pig 64, Study Group 3, SC, ZA […], rHuPH20 10000 U/mL, 100 mL over 16 min, time 8 h): BLQ (below assay limit of quantification (2.0 ng/mL))
- Zoledronic Acid Serum Concentration (pig 64, Study Group 3, SC, ZA […], rHuPH20 10000 U/mL, 100 mL over 16 min, time 10 h): BLQ (below assay limit of quantification (2.0 ng/mL))
- Zoledronic Acid Serum Concentration (pig 64, Study Group 3, SC, ZA […], rHuPH20 10000 U/mL, 100 mL over 16 min, time 24 h): BLQ (below assay limit of quantification (2.0 ng/mL))
- Zoledronic Acid Serum Concentration (pig 64, Study Group 3, SC, ZA […], rHuPH20 10000 U/mL, 100 mL over 16 min, time 48 h): BLQ (below assay limit of quantification (2.0 ng/mL))
- Zoledronic Acid Serum Concentration (pig 64, Study Group 3, SC, ZA […], rHuPH20 10000 U/mL, 100 mL over 16 min, time 72 h): BLQ (below assay limit of quantification (2.0 ng/mL))
- Zoledronic Acid Serum Concentration (pig 64, Study Group 3, SC, ZA […], rHuPH20 10000 U/mL, 100 mL over 16 min, time […]): BLQ (below assay limit of quantification (2.0 ng/mL))
- Zoledronic Acid Serum Concentration (pig 66, Study Group 3, SC, ZA […], rHuPH20 10000 U/mL, 100 mL over 16 min, time 6 h): BLQ (below assay limit of quantification (2.0 ng/mL))
- Zoledronic Acid Serum Concentration (pig 66, Study Group 3, SC, ZA […], rHuPH20 10000 U/mL, 100 mL over 16 min, time 8 h): BLQ (below assay limit of quantification (2.0 ng/mL))
- Zoledronic Acid Serum Concentration (pig 66, Study Group 3, SC, ZA […], rHuPH20 10000 U/mL, 100 mL over 16 min, time 10 h): BLQ (below assay limit of quantification (2.0 ng/mL))
- Zoledronic Acid Serum Concentration (pig 66, Study Group 3, SC, ZA […], rHuPH20 10000 U/mL, 100 mL over 16 min, time 24 h): BLQ (below assay limit of quantification (2.0 ng/mL))
- Zoledronic Acid Serum Concentration (pig 66, Study Group 3, SC, ZA […], rHuPH20 10000 U/mL, 100 mL over 16 min, time 48 h): BLQ (below assay limit of quantification (2.0 ng/mL))
- Zoledronic Acid Serum Concentration (pig 66, Study Group 3, SC, ZA […], rHuPH20 10000 U/mL, 100 mL over 16 min, time 72 h): BLQ (below assay limit of quantification (2.0 ng/mL))
- Zoledronic Acid Serum Concentration (pig 66, Study Group 3, SC, ZA […], rHuPH20 10000 U/mL, 100 mL over 16 min, time […]): BLQ (below assay limit of quantification (2.0 ng/mL))
- Zoledronic Acid Serum Concentration (pig 68, Study Group 3, SC, ZA […], rHuPH20 10000 U/mL, 10 mL over 1.6 min, time 8 h): BLQ (below assay limit of quantification (2.0 ng/mL))
- Zoledronic Acid Serum Concentration (pig 68, Study Group 3, SC, ZA […], rHuPH20 10000 U/mL, 10 mL over 1.6 min, time 10 h): BLQ (below assay limit of quantification (2.0 ng/mL))
- Zoledronic Acid Serum Concentration (pig 68, Study Group 3, SC, ZA […], rHuPH20 10000 U/mL, 10 mL over 1.6 min, time 24 h): BLQ (below assay limit of quantification (2.0 ng/mL))
- Zoledronic Acid Serum Concentration (pig 68, Study Group 3, SC, ZA […], rHuPH20 10000 U/mL, 10 mL over 1.6 min, time 48 h): BLQ (below assay limit of quantification (2.0 ng/mL))
- Zoledronic Acid Serum Concentration (pig 68, Study Group 3, SC, ZA […], rHuPH20 10000 U/mL, 10 mL over 1.6 min, time 72 h): BLQ (below assay limit of quantification (2.0 ng/mL))
- Zoledronic Acid Serum Concentration (pig 68, Study Group 3, SC, ZA […], rHuPH20 10000 U/mL, 10 mL over 1.6 min, time […]): BLQ (below assay limit of quantification (2.0 ng/mL))
- T½ λz (pig, ZA […] 20-min IV infusion, individual pigs 57, 61, 67): 46.8 min
